# How the values were obtained:
# [1] = tested on: TK6 cells; test: γH2AX assay using TK6 cells; format: cell-based, Human; conditions: 4 hr treatment, up to 100 μM
# Protocol: γH2AX Assay Using TK6 Cells
# Human lymphoblasts-derived TK6 cells were treated with the compounds of Examples 489, 512 or 519 at 0, 10, 30 or 100 μmol/L (final concentration) for 4 hr, and the presence or absence of DNA damage was evaluated by measuring phosphorylation of histone H2AX (γH2AX) as a marker. In addition, cytotoxicity after 24-hr treatment was also evaluated.
# Exponentially growing TK6 cells were prepared at the cell density of 4×10^5 cells/mL in a culture medium, and was added to a 96-well plate by 100 μL/well. A test compound solution (2% DMSO) prepared using a culture solution, having twice the concentration on the above-mentioned final concentrations, was added thereto by 100 μL/well. This plate was incubated at 37° C., the cell suspension after 4 hr was sampled, and stained using In Vitro MultiFlow™ DNA Damage Kit (Litron), and H2AX phosphorylation level in each nucleus was measured using a flow cytometer and average value was calculated. The H2AX phosphorylation level in the concurrent vehicle control group was also measured and average value was calculated. The rate of change in the H2AX phosphorylation level in the treatment groups relative to that in the control group was calculated, and Dunnett test (significance level: two-tailed 1%) was performed. In addition, the cell suspension after 24 hr treatment was sampled, and the nucleus number was measured, and variation in the nucleus number in the treatment groups relative to that in the concurrent vehicle control group was used as an indicator of cytotoxicity. […] Therefore, the potential of the compounds for DNA strand breakage was judged to be negative under this test condition.
# [2] = tested on: liver and glandular stomach cells; test: Comet assay in rats (liver and glandular stomach); format: in vivo, rats (Crl:CD(SD)); conditions: rats, 1000 mg/kg and 2000 mg/kg once daily for 3 days
# Protocol: Combination Assay of Micronucleus Test and Comet Assay in Rats
# The compound of Example 489 at doses of 1000 and 2000 mg/kg was orally administered to 8 to 9-week-old rats (Crl:CD(SD), five/group) once daily for 3 days, and micronucleus induction was evaluated in bone-marrow cells, and DNA damage was evaluated by DNA fragmentation of cell nucleus in the liver and glandular stomach.
# Sample for comet assay was obtained from liver and glandular stomach by the following procedures. A part of left lateral lobe of liver was washed well with a cooled mincing buffer solution (Hanks' balanced salt solution containing 20 mmol/L EDTA and 10 vol % DMSO, pH7.5), and minced finely with dissecting scissors. This sample was kept on ice for 15 to 30 seconds, the precipitated large cell mass was removed, and the obtained cell suspension was kept on ice. Glandular stomach was added to a cooled mincing buffer solution, and kept on ice for 15 to 30 min. Then, the surface epithelium was removed by scraping gently twice, the stomach mucosa was washed well with a cooled mincing buffer solution, and the mucosa surface was taken out by scraping carefully four times or five times. This was kept on ice for 15 to 30 seconds, the precipitated large cell mass was removed, and the obtained cell suspension was kept on ice.
# The liver and glandular stomach cell suspensions prepared by the above-mentioned procedures were added to 0.5 w/v % low-melting agarose so that the concentration became 10 vol % or less, 40 μL of the suspension was dropped to MAS-coated slide (Matsunami Glass Ind., Ltd.), and fixed to give a slide sample. The slide sample was immersed in a cooled cell lysate [an aqueous solution containing 2.5 mol/L sodium chloride, 100 mmol/L EDTA, 10 mmol/L tris(hydroxymethyl)aminomethane, 10 vol % DMSO and 1 vol % Triton X-100, pH 10.0], and kept overnight under light shielding in a refrigerator (2 to 8° C.).
# The slide sample was washed with ultrapure water, set at random into an electrophoresis apparatus filled with an alkali buffer solution (an aqueous solution containing 0.3 mol/L sodium hydroxide and 1 mmol/L EDTA, pH >13) for electrophoresis. After confirming that the sample was completely immersed, the sample was left for 20 min to unwind the strands. Next, electrophorese was performed at a constant voltage of 0.7 to 1 V/cm (current is set about 0.30 A) for 20 min (the electrophoresis apparatus was kept on ice so that the alkali buffer solution for electrophoresis was kept at a constant temperature of 10° C. or below, during from the dissociation of the strands to electrophoresis). After electrophoresis, the slide sample was immersed in a neutralizing solution [0.4 mol/L aqueous tris(hydroxymethyl)aminomethane solution, pH 7.5] for 5 min or longer. Then, the slide sample was immersed in ethanol for 5 min or longer, and air-dried. […] The slide samples for negative control, test compound and positive control groups were encoded, and analyzed by the blind method. In each individual animal, 150 of suitable cells were selected for observation using a biological microscope with fluorescence attachment at 200-fold final magnification, and analyzed by image analysis software (Comet Assay IV, Perceptive Instruments Ltd.). The degree of the DNA damage was evaluated by % tail intensity calculated automatically from image analysis software. The median of the % tail intensity was calculated in each slide sample, and the average of the median was calculated in each individual. […]
structure (smiles),measurement,setting,value
"O=C1c2cc(-c3nnc(C(F)F)o3)cnc2CN1[C@@H]1CCCC[C@H]1NC(=O)C(F)(F)C(F)(F)F [Example 489, N-((1R,2R)-2-(3-(5-(difluoromethyl)-1,3,4-oxadiazol-2-yl)-5-oxo-5,7-dihydro-6H-pyrrolo[3,4-b]pyridin-6-yl)cyclohexyl)-2,2,3,3,3-pentafluoropropanamide]",histone H2AX phosphorylation (γH2AX) resulted from DNA strand breakage,[1],did not induce histone H2AX phosphorylation
same,potential for DNA strand breakage (judgement),[1],negative
same,DNA strand breakage in liver and glandular stomach cells,[2],not induced

# From US10435399B2, “HDAC6 inhibitory heterocyclic compound” (TAKEDA PHARMACEUTICAL COMPANY LIMITED, priority 2017, dated 2019)
